In patent US9566312B2, “Cyclic peptides and use as medicines” (priority 2012, dated 2017):
Where two headings read alike, the source gives them in different places. Starred links: 1 amine or outer side, 2 acyl side, 3 side chain; linkers in the order of their positions; H or OH if unused. Non-standard residues stand in square brackets, D forms with d. Residues, ends and D or L forms follow the SMILES beside them. X10 = C[C@H](CCCOC(=O)NC1CCN(C)CC1)[C@@H](C(=O)[*:2])N(C)[*:1]; X25 = CCN1CCO[C@H](COC[C@@H](C)[C@@H](C(=O)[*:2])N(C)[*:1])C1; X1 = COC[C@@H]1CN(C[C@H](C)[C@@H](C(=O)[*:2])N(C)[*:1])CCO1; X22 = C[C@H](CN1CCN(C2CCC2)CC1)[C@@H](C(=O)[*:2])N(C)[*:1]; X19 = COCCN1CCN(C[C@H](C)[C@@H](C(=O)[*:2])N(C)[*:1])CC1; NMe(dihydroBmt) = CCCC[C@@H](C)[C@@H](O)[C@H](NC)C(=O)O; X17 = C[C@H](COCC(C)(C)O)[C@@H](C(=O)[*:2])N(C)[*:1]; X20 = C[C@H](CCCN1CCOCC1)[C@@H](C(=O)[*:2])N(C)[*:1]; MeBmt = C/C=C/C[C@@H](C)[C@@H](O)[C@H](NC)C(=O)O; X13 = C[C@H](CC#N)[C@@H](C(=O)[*:2])N(C)[*:1]; X24 = C[C@H](CO)[C@@H](C(=O)[*:2])N(C)[*:1]; NMeL = CN[C@@H](CC(C)C)C(=O)O; NMeV = CN[C@H](C(=O)O)C(C)C; dNMeA = CN[C@H](C)C(=O)O; Abu = CC[C@H](N)C(=O)O

Assays:
[1] = target: cyclophilin A (CypA) (Homo sapiens (Human), UniProt P62937); assay: Inhibitor binding to cyclophilin proteins by SPR, CypA; parameters: unit not given here; details: 1:1 binding model;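 also: Single-cycle kinetics on a Biacore T200, compound injected at several concentrations for 1 min each at 50 µL/min, then 10 min dissociation, in HEPES pH 7.4 buffer with 3% DMSO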
[2] = target: cyclophilin B (CypB) (Homo sapiens (Human), UniProt P23284); assay: Inhibitor binding to cyclophilin proteins by SPR, CypB; parameters: unit not given here; details: 1:1 binding model
Procedure, shortened: (§1)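 A 1:1 model fitted to single-cycle kinetic SPR data gave association and dissociation rates and KD. Compound series injected for 1 min each at 50 μL/min, then 10 min dissociation. Running buffer HEPES pH 7.4 with NaCl, P20 and 3% DMSO; target protein was biotinylated avi-tagged cyclophilin on a CAPture surface.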

[3] = target: CypF (Homo sapiens (Human), UniProt P30405); assay: Inhibitor binding to cyclophilin proteins by SPR, CypF; details: 1:1 binding model
Procedure, shortened: as §1

[4] = test system: genotype 1b subgenomic HCV replicon in Huh7.5 cells; assay type: cell-based, hepatitis C virus; details: read-out: RPLN-1b IC50
Procedure, shortened: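 Replicon inhibition read as renilla luciferase signal versus DMSO controls after 72 h incubation, in Huh7.5 cells harbouring a genotype 1b subgenomic replicon; medium phenol red-free DMEM lacking G418. CC50 determined in parallel via Cell Titer-Glo.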

[5] = test system: peripheral blood mononuclear cells (PBMC); assay: Anti-proliferative or immunosuppressive activity, BrdU incorporation in PHA-stimulated PBMC; assay type: cell-based; details: PHA 3 μg/ml, 60 hour compound treatment; read-out: EMV PBMC IC50
Procedure, shortened: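 BrdU ELISA read-out of DNA synthesis in freshly isolated PBMCs (two donors, 30,000 cells/well, X-VIVO 15). T-cell proliferation triggered with phytohemagglutinin at 3 μg/ml.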

[6] = target: organic anion transporting polypeptide 1B1 (OATP1B1) (Homo sapiens (Human), UniProt Q9Y6L6); assay: OATP assay in CHO-OATP1B1 cells;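 also: inhibition of probe substrate uptake into the cells, ten minutes exposure, accumulated substrate read by fluorescence once cells were lysed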
Protocol: In order to determine whether the compounds of the present invention interact with hepatic transporters, experiments were carried out that compared the concentration-dependent inhibition toward the organic anion transporting polypeptide 1B1 (OATP1B1) and the multidrug resistance associated protein 2 (MRP2).
The cells were cultured in DMEM/F12 +10% FBS+2 mM Ala-Gln+1% Pen-Strep for a period of two days, and the media was changed one day post-seeding. Prior to the assay, media was aspirated and were washed −3× with HBSS+10 mM HEPES and the solution was equilibrated for 15 min in HBSS+10 mM HEPES. Solutions containing the inhibitor were prepared in HBSS+10 mM HEPES (up to 1% DMSO). […] After 10 min, the substrate or substrate/inhibitor solution was aspirated and the cells were washed 3× with HBSS+10 mM HEPES. The amount of the transported probe substrate was determined by fluorescent photometry after cell lysis, and the IC50 was derived from the concentration-response curve.

[7] = target: CYP3A4 (Homo sapiens (Human), UniProt P08684); assay: Time-dependent inhibition of CYP3A4;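 also: Two-step in vitro assay, kobs derived from residual CYP3A4 activity versus preincubation time per concentration, then kinact and KI by nonlinear fit of kobs against concentration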
Protocol: Method 5: Measuring Time-Dependent Inhibition of CYP3A4
The CYP3A4 time dependent inhibition potential of various inhibitors was determined by a two step in vitro assay. […] The inactivation rate constant (kobs) was obtained by plotting the activity remaining over pre-incubation time for each concentration of compound. The maximal inactivation rate (kinact) and the inactivation potency (KI) were calculated by non linear regression analysis of the inactivation rate constant (kobs) versus compound concentrations [I] curve according to the equation kobs=[kinact·[I]]/[KI+[I]]

[8] = genotype 1b replicon, 72 h incubation

Sequence of CypF (P30405 30-207): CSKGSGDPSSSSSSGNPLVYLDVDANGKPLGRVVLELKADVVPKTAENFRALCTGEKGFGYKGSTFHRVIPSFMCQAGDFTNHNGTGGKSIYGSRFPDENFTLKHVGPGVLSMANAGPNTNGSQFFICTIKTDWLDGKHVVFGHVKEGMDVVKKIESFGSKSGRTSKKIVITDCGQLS
Sequence of cyclophilin B (CypB) (P23284 34-216): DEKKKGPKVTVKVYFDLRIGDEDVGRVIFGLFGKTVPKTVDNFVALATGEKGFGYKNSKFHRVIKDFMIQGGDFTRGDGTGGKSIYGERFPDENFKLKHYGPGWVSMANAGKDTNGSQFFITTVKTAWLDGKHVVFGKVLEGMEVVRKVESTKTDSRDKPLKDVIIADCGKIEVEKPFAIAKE
Sequence of organic anion transporting polypeptide 1B1 (OATP1B1) (Q9Y6L6 whole entry): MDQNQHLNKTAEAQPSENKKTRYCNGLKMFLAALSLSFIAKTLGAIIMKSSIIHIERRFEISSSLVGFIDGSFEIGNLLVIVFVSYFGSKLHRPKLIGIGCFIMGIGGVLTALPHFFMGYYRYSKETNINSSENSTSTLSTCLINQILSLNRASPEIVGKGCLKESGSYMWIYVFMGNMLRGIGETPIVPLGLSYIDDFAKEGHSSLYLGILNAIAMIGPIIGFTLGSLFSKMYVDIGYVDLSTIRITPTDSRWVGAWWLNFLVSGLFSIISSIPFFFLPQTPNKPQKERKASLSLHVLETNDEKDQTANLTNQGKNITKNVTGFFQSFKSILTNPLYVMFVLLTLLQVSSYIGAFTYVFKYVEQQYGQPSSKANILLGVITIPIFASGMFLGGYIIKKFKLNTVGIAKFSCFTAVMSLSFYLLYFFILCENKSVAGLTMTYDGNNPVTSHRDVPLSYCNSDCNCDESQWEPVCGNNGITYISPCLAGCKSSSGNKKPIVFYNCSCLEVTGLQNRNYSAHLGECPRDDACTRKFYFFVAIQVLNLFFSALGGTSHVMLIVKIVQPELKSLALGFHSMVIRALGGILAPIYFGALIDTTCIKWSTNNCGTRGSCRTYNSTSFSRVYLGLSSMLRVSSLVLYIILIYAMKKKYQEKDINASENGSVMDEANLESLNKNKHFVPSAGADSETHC
Sequence of cyclophilin A (CypA) (P62937 whole entry): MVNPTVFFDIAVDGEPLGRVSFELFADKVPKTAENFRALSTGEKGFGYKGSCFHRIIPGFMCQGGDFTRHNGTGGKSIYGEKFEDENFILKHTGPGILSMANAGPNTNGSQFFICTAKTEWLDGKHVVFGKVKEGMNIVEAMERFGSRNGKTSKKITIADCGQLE
Sequence of CYP3A4 (P08684 whole entry): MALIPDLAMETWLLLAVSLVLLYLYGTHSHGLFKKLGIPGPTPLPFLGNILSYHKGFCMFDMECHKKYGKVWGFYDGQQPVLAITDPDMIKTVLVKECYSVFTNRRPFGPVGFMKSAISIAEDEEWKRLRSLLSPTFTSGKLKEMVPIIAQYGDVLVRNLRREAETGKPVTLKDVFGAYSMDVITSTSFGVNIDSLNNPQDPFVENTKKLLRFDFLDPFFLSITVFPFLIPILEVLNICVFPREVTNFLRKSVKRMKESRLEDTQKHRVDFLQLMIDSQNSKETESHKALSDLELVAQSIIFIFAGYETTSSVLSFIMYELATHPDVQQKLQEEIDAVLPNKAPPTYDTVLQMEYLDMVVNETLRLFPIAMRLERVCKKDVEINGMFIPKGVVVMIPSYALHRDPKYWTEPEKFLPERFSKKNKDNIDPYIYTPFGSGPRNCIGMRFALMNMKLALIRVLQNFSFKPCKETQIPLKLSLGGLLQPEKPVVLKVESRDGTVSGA

| Compound | CypA Kd [1] | CypB Kd [2] | CypF Kd [3] | IC50 [4] | IC50 [5] | IC50 [6] | NIM TDI kinact/Ki ([7]; probe substrate midazolam) | IC50 [4, 8] | Ki [7] | NIM TDI, result in words ([7]; probe substrate midazolam) | KI (inactivation) [7] |
| --- | --- | --- | --- | --- | --- | --- | --- | --- | --- | --- | --- |
| C/C=C/C[C@@H](C)[C@@H](O)[C@H]1C(=O)N[C@@H](CC)C(=O)N(C)[C@H](C)C(=O)N(C)[C@@H]([C@H](C)CCCN2CCOCC2)C(=O)N[C@@H](C(C)C)C(=O)N(C)[C@@H](CC(C)C)C(=O)N[C@@H](C)C(=O)N[C@H](C)C(=O)N(C)[C@@H](CC(C)C)C(=O)N(C)[C@@H](CC(C)C)C(=O)N(C)[C@@H](C(C)C)C(=O)N1C [Compound 2.19.1, 3-[D-Ala]-4-[(2S,3R)-3-methyl-2-(methylamino)-6-morpholinohexanoyl]-cyclosporin] (cyclo([MeBmt][Abu][dNMeA][X20]V[NMeL]A[dA][NMeL][NMeL][NMeV])) | 0.9 | 0.5 | 0.5 nM | 38 nM | 16600 nM | 6900 nM | 17 M⁻¹ s⁻¹ | – | – | – | – |
| C/C=C/C[C@@H](C)[C@@H](O)[C@H]1C(=O)N[C@@H](CC)C(=O)N(C)[C@H](C)C(=O)N(C)[C@@H]([C@H](C)CC#N)C(=O)N[C@@H](C(C)C)C(=O)N(C)[C@@H](CC(C)C)C(=O)N[C@@H](C)C(=O)N[C@H](C)C(=O)N(C)[C@@H](CC(C)C)C(=O)N(C)[C@@H](CC(C)C)C(=O)N(C)[C@@H](C(C)C)C(=O)N1C [Compound 2.10, 3-[D-Ala]-4-[(2S,3R)-4-cyano-3-methyl-2-(methylamino)butanoyl]-cyclosporin] (cyclo(A[dA][NMeL][NMeL][NMeV][MeBmt][Abu][dNMeA][X13]V[NMeL])) | 1.2 | 0.5 | 0.5 nM | – | 12900 nM | 900 nM | – | 27 nM | > 50000 nM | – | – |
| C/C=C/C[C@@H](C)[C@@H](O)[C@H]1C(=O)N[C@@H](CC)C(=O)N(C)[C@H](C)C(=O)N(C)[C@@H]([C@H](C)CCCOC(=O)NC2CCN(C)CC2)C(=O)N[C@@H](C(C)C)C(=O)N(C)[C@@H](CC(C)C)C(=O)N[C@@H](C)C(=O)N[C@H](C)C(=O)N(C)[C@@H](CC(C)C)C(=O)N(C)[C@@H](CC(C)C)C(=O)N(C)[C@@H](C(C)C)C(=O)N1C [Compound 2.19.8, 3-[D-Ala]-4-[(2S,3R)-3-methyl-2-(methylamino)-6-(((1-methylpiperidin-4-yl)carbamoyl)oxy)hexanoyl]-cyclosporin] (cyclo(A[dA][NMeL][NMeL][NMeV][MeBmt][Abu][dNMeA][X10]V[NMeL])) | 0.8 | 0.4 | 0.4 nM | – | – | 7800 nM | – | – | > 50000 nM | – | – |
| C/C=C/C[C@@H](C)[C@@H](O)[C@H]1C(=O)N[C@@H](CC)C(=O)N(C)[C@H](C)C(=O)N(C)[C@@H]([C@@H](C)CN2CCO[C@H](COC)C2)C(=O)N[C@@H](C(C)C)C(=O)N(C)[C@@H](CC(C)C)C(=O)N[C@@H](C)C(=O)N[C@H](C)C(=O)N(C)[C@@H](CC(C)C)C(=O)N(C)[C@@H](CC(C)C)C(=O)N(C)[C@@H](C(C)C)C(=O)N1C [Compound 2.17.8, 3-[D-Ala]-4[(2S,3S)-2-Amino-4-((S)-2-methoxymethyl-morpholin-4-yl)-3-methyl-butanoyl]-cyclosporin] (cyclo(A[dA][NMeL][NMeL][NMeV][MeBmt][Abu][dNMeA][X1]V[NMeL])) | 1.2 | 0.7 | 0.6 nM | – | 36400 nM | – | – | 22 nM | > 50000 nM | – | – |
| C/C=C/C[C@@H](C)[C@@H](O)[C@H]1C(=O)N[C@@H](CC)C(=O)N(C)[C@H](C)C(=O)N(C)[C@@H]([C@H](C)CO)C(=O)N[C@@H](C(C)C)C(=O)N(C)[C@@H](CC(C)C)C(=O)N[C@@H](C)C(=O)N[C@H](C)C(=O)N(C)[C@@H](CC(C)C)C(=O)N(C)[C@@H](CC(C)C)C(=O)N(C)[C@@H](C(C)C)C(=O)N1C [Compound 2.5.1, 3-[D-Ala]-4-[(2S,3S)-4-hydroxy-3-methyl-2-(methylamino)butanoyl]-cyclosporin] (cyclo(A[dA][NMeL][NMeL][NMeV][MeBmt][Abu][dNMeA][X24]V[NMeL])) | 4.8 | 3.5 | 2.2 nM | – | 6800 nM | 3600 nM | – | 400 nM | – | No TDI | – |
| C/C=C/C[C@@H](C)[C@@H](O)[C@H]1C(=O)N[C@@H](CC)C(=O)N(C)[C@H](C)C(=O)N(C)[C@@H]([C@@H](C)CN2CCN(CCOC)CC2)C(=O)N[C@@H](C(C)C)C(=O)N(C)[C@@H](CC(C)C)C(=O)N[C@@H](C)C(=O)N[C@H](C)C(=O)N(C)[C@@H](CC(C)C)C(=O)N(C)[C@@H](CC(C)C)C(=O)N(C)[C@@H](C(C)C)C(=O)N1C [Compound 2.17.4, 3-[D-Ala]-4[(2S,3S)-2-Amino-4-[4-(2-methoxy-ethyl)-piperazin-1-yl]-3-methyl-butanoyl]-cyclosporin] (cyclo(A[dA][NMeL][NMeL][NMeV][MeBmt][Abu][dNMeA][X19]V[NMeL])) | 0.6 | 0.5 | 0.3 nM | – | 2700 nM | 3200 nM | – | 31 nM | > 50000 nM | – | – |
| CCCC[C@@H](C)[C@@H](O)[C@H]1C(=O)N[C@@H](CC)C(=O)N(C)[C@H](C)C(=O)N(C)[C@@H]([C@H](C)CN2CCN(C3CCC3)CC2)C(=O)N[C@@H](C(C)C)C(=O)N(C)[C@@H](CC(C)C)C(=O)N[C@@H](C)C(=O)N[C@H](C)C(=O)N(C)[C@@H](CC(C)C)C(=O)N(C)[C@@H](CC(C)C)C(=O)N(C)[C@@H](C(C)C)C(=O)N1C [Compound 2.5.15, 1-dihydro-3-[D-Ala]-4[(2S,3R)-2-Amino-4-(4-cyclobutyl-piperazin-1-yl)-butanoyl]-cyclosporin] (cyclo([NMe(dihydroBmt)][Abu][dNMeA][X22]V[NMeL]A[dA][NMeL][NMeL][NMeV])) | 1.4 | 0.7 | 0.6 nM | 18 nM | 7600 nM | – | – | – | – | – | > 50000 nM |
| CCCC[C@@H](C)[C@@H](O)[C@H]1C(=O)N[C@@H](CC)C(=O)N(C)[C@H](C)C(=O)N(C)[C@@H]([C@@H](C)CN2CCN(CCOC)CC2)C(=O)N[C@@H](C(C)C)C(=O)N(C)[C@@H](CC(C)C)C(=O)N[C@@H](C)C(=O)N[C@H](C)C(=O)N(C)[C@@H](CC(C)C)C(=O)N(C)[C@@H](CC(C)C)C(=O)N(C)[C@@H](C(C)C)C(=O)N1C [Compound 2.17.6, 1-dihydro-3-[D-Ala]-4[(2S,3S)-2-Amino-4-[4-(2-methoxy-ethyl)-piperazin-1-yl]-3-methyl-butanoyl]-cyclosporin] (cyclo(A[dA][NMeL][NMeL][NMeV][NMe(dihydroBmt)][Abu][dNMeA][X19]V[NMeL])) | 0.9 | 0.6 | 0.5 nM | – | 14600 nM | 3300 nM | – | 20 nM | > 50000 nM | – | – |
| C/C=C/C[C@@H](C)[C@@H](O)[C@H]1C(=O)N[C@@H](CC)C(=O)N(C)[C@H](C)C(=O)N(C)[C@@H]([C@H](C)COC[C@@H]2CN(CC)CCO2)C(=O)N[C@@H](C(C)C)C(=O)N(C)[C@@H](CC(C)C)C(=O)N[C@@H](C)C(=O)N[C@H](C)C(=O)N(C)[C@@H](CC(C)C)C(=O)N(C)[C@@H](CC(C)C)C(=O)N(C)[C@@H](C(C)C)C(=O)N1C [Compound 2.20.1, 3-[D-Ala]-4-[(2S,3S)-4-(((S)-4-ethylmorpholin-2-yl)methoxy)-3-methyl-2-(methylamino)butanoyl]-cyclosporin] (cyclo(A[dA][NMeL][NMeL][NMeV][MeBmt][Abu][dNMeA][X25]V[NMeL])) | 0.7 | 0.7 | 0.5 nM | – | – | 1900 nM | 6.7 M⁻¹ s⁻¹ | – | – | – | – |
| C/C=C/C[C@@H](C)[C@@H](O)[C@H]1C(=O)N[C@@H](CC)C(=O)N(C)[C@H](CCCN2CCOCC2)C(=O)N(C)[C@@H]([C@H](C)CS(C)(=O)=O)C(=O)N[C@@H](C(C)C)C(=O)N(C)[C@@H](CC(C)C)C(=O)N[C@@H](C)C(=O)N[C@H](C)C(=O)N(C)[C@@H](CC(C)C)C(=O)N(C)[C@@H](CC(C)C)C(=O)N(C)[C@@H](C(C)C)C(=O)N1C (stereo in doubt) [Compound 3.4.2, 3-[(R)-2-(methylamino)-5-morpholinopentanoyl]-4-[(2S,3S)-3-methyl-2-(methylamino)-4-(methylsulfonyl)butanoyl]-cyclosporin] | 8.7 | 4.4 | 5 nM | – | 13800 nM | – | – | 1300 nM | > 50000 nM | – | – |
| C/C=C/C[C@@H](C)[C@@H](O)[C@H]1C(=O)N[C@@H](CC)C(=O)N(C)[C@H](C)C(=O)N(C)[C@@H]([C@H](C)COCC(C)(C)O)C(=O)N[C@@H](C(C)C)C(=O)N(C)[C@@H](CC(C)C)C(=O)N[C@@H](C)C(=O)N[C@H](C)C(=O)N(C)[C@@H](CC(C)C)C(=O)N(C)[C@@H](CC(C)C)C(=O)N(C)[C@@H](C(C)C)C(=O)N1C [Compound 2.7, 3-[D-Ala]-4-[(2S,3S)-4-(2-hydroxy-2-methylpropoxy)-3-methyl-2-(methylamino)butanoyl]-cyclosporin] (cyclo(A[dA][NMeL][NMeL][NMeV][MeBmt][Abu][dNMeA][X17]V[NMeL])) | 2.5 | 1.2 | 0.9 nM | – | – | 1800 nM | 25 M⁻¹ s⁻¹ | – | – | – | – |
